One test addresses PLK1 (Homo sapiens, UniProt P53350). The test is described as follows: PLK1 inhibition assay (radioactive-phosphate incorporation). In kind it is biochemical. Conditions: 150 μM ATP, 300 μM peptide, 4 nM PLK1, 90 minutes, 25° C., read-out: Ki in the radioactive incorporation assay (Ki(app)). As for the experimental part:
The compounds of the present invention are evaluated as inhibitors of human PLK kinase using the following assays.
Compounds were screened for their ability to inhibit PLK1 using a radioactive-phosphate incorporation assay. Assays were carried out in a mixture of 25 mM HEPES (pH 7.5), 10 mM MgCl2, 0.1% BSA, and 2 mM DTT. Final substrate concentrations were 150 μM (350 μM for determining values of less than 1 nM) [γ-33P]ATP (115 mCi 33P ATP/mmol ATP, Amersham Pharmacia Biotech/Sigma Chemicals) and 300 μM (450 μM for determining values of <1 nM) peptide (KKKISDELMDATFADQEAK) (SEQ ID NO:1). Assays were carried out at 25° C. in the presence of 4 nM (1 nM for determining values of less than 1 nM) PLK1. An assay stock buffer solution was prepared containing all of the reagents listed above, with the exception of ATP and the test compound of interest. 30 μL of the stock solution was placed in a 96 well plate followed by addition of 2 μL of DMSO stock containing serial dilutions of the test compound (typically starting from a final concentration of 10 μM with 2-fold serial dilutions) in duplicate (final DMSO concentration 5%). The plate was pre-incubated for 10 minutes at 25° C. and the reaction initiated by addition of 8 μL [γ-33P]ATP (final concentration 150 μM (350 μM for determining values of less than 1 nM))).
The reaction was stopped after 90 minutes (240 minutes for determining values of less than 1 nM) by the addition of 100 μL 0.14M phosphoric acid. A multiscreen phosphocellulose filter 96-well plate (Millipore, Cat. No. MAPHN0B50) was pretreated with 100 μL 0.2M phosphoric acid prior to the addition of 125 μL of the stopped assay mixture. The plate was washed with 200 μL 0.2M phosphoric acid for 4 times. After drying, 100 μL Optiphase ‘SuperMix’ liquid scintillation cocktail (Perkin Elmer) was added to the well prior to scintillation counting (1450 Microbeta Liquid Scintillation Counter, Wallac).
After removing mean background values for all of the data points, Ki(app) data were calculated from non-linear regression analysis of the initial rate data using the Prism software package (GraphPad Prism version 3.0cx for Macintosh, GraphPad Software, San Diego Calif., USA).
Sequence of PLK1 (P53350 whole entry): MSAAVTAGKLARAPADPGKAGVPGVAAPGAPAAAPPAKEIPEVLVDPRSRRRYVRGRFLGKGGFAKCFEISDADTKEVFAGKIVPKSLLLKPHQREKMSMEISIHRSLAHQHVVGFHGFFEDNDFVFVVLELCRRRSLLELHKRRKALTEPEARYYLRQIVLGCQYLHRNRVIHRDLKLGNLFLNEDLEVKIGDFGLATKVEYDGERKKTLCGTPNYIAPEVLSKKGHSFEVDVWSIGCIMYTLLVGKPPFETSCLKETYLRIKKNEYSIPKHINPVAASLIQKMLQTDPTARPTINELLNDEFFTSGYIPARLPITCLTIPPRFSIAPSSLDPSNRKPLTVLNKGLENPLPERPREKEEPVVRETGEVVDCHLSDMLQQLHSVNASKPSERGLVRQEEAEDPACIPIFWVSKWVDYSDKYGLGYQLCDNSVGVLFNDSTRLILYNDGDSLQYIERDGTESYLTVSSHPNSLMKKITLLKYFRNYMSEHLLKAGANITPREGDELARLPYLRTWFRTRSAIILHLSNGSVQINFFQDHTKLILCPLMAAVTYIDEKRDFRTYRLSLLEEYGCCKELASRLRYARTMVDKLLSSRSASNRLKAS
As to `COc1cc(C(=O)NC2CC2)ccc1Nc1ncc2c(n1)N([C@@H]1CCC(F)(F)C1)CC(C)(C)C(=O)N2C` [Compound I-1, (R)—N-cyclopropyl-4-(9-(3,3-difluorocyclopentyl)-5,7,7-trimethyl-6-oxo-6,7,8,9-tetrahydro-5H-pyrimido[4,5-b][1,4]diazepin-2-ylamino)-3-methoxybenzamide], the Ki is 1 to 10 nM.
For the compound `COc1cc(C(=O)NC2CC2)ccc1Nc1ncc2c(n1)N([C@@H]1CCC(F)(F)C1)CC1(CC1)C(=O)N2C` [Compound I-4, (R)—N-cyclopropyl-4-(9′-(3,3-difluorocyclopentyl)-5′-methyl-6′-oxo-5′,6′,8′,9′-tetrahydrospiro[cyclopropane-1,7′-pyrimido[4,5-b][1,4]diazepine]-2′-ylamino)-3-methoxybenzamide], the Ki was 1 to 10 nM.
As for `COc1cc(C(=O)N[C@@H]2CCC(F)(F)C2)ccc1Nc1ncc2c(n1)N([C@@H]1CCC(F)(F)C1)CC1(CC1)C(=O)N2C` [Compound I-5, N-((R)-3,3-difluorocyclopentyl)-4-(9′-((R)-3,3-difluorocyclopentyl)-5′-methyl-6′-oxo-5′,6′,8′,9′-tetrahydrospiro[cyclopropane-1,7′-pyrimido[4,5-b][1,4]diazepine]-2′-ylamino)-3-methoxybenzamide], the Ki lay within 1 to 10 nM.

The same test, now with this note: conditions for values of less than 1 nM: 350 μM ATP, 450 μM peptide, 1 nM PLK1, 240 minutes, 25° C., read-out: Ki in the radioactive incorporation assay (Ki(app)).
As for `COc1cc(C(=O)N[C@@H]2CC[C@@H](F)C2)ccc1Nc1ncc2c(n1)N([C@@H]1CCC(F)(F)C1)CC(C)(C)C(=O)N2C` [Compound I-2, 4-(9-((R)-3,3-difluorocyclopentyl)-5,7,7-trimethyl-6-oxo-6,7,8,9-tetrahydro-5H-pyrimido[4,5-b][1,4]diazepin-2-ylamino)-N-((1R,3R)-3-fluorocyclopentyl)-3-methoxybenzamide], the Ki was below 1 nM.
Take `COc1cc(C(=O)N[C@@H]2CCC(F)(F)C2)ccc1Nc1ncc2c(n1)N([C@@H]1CCC(F)(F)C1)CC(C)(C)C(=O)N2C` [Compound I-3, N-((R)-3,3-difluorocyclopentyl)-4-(9-((R)-3,3-difluorocyclopentyl)-5,7,7-trimethyl-6-oxo-6,7,8,9-tetrahydro-5H-pyrimido[4,5-b][1,4]diazepin-2-ylamino)-3-methoxybenzamide]: the Ki is below 1 nM.
As to `CCNC(=O)c1ccc(Nc2ncc3c(n2)N([C@@H]2CCC(F)(F)C2)[C@H](CC)c2nncn2-3)c(OC)c1` [Compound I-6, 4-((R)-5-((R)-3,3-difluorocyclopentyl)-4-ethyl-4,5-dihydro-[1,2,4]triazolo[4,3-f]pteridin-7-ylamino)-N-ethyl-3-methoxybenzamide], the Ki is below 1 nM.
Same read-out and setting: next, `CC[C@@H]1c2nncn2-c2cnc(Nc3ccc(C(=O)NC4CC4)cc3OC)nc2N1[C@@H]1CCC(F)(F)C1` [Compound I-7, N-cyclopropyl-4-((R)-5-((R)-3,3-difluorocyclopentyl)-4-ethyl-4,5-dihydro-[1,2,4]triazolo[4,3-f]pteridin-7-ylamino)-3-methoxybenzamide]: below 1 nM; `CCNC(=O)c1ccc(Nc2ncc3c(n2)N([C@@H]2CCC(F)(F)C2)[C@H](CC)C(=O)N3C)c(OC)c1` [Compound I-8, 4-((R)-8-((R)-3,3-difluorocyclopentyl)-7-ethyl-5-methyl-6-oxo-5,6,7,8-tetrahydropteridin-2-ylamino)-N-ethyl-3-methoxybenzamide]: below 1 nM; `CC[C@@H]1C(=O)N(C)c2cnc(Nc3ccc(C(=O)NC4CC4)cc3OC)nc2N1[C@@H]1CCC(F)(F)C1` [Compound I-9, N-cyclopropyl-4-((R)-8-((R)-3,3-difluorocyclopentyl)-7-ethyl-5-methyl-6-oxo-5,6,7,8-tetrahydropteridin-2-ylamino)-3-methoxybenzamide]: below 1 nM.
